The record followed here is PMC3796549 (PLoS ONE, 2013).

By Ki is commonly meant the equilibrium dissociation constant of an inhibitor or competing ligand from its target. Low readings indicate higher affinity, high ones lower affinity. Usually IC50 stands for the concentration that inhibits the measured activity by half. A lower IC50 goes with higher potency.

Like-named read-outs stand apart in the source and are kept apart here.

The target of experiment [1] is T1, PtpB (Mycobacterium tuberculosis, UniProt P96830).
T1 construct: made in house
Nature of the experiment: biochemical. The settings on record: for Ki: pNPP 0.2-12.8 mM, mean ± SD; for Type of inhibition: with respect to substrate pNPP.

The target of a further experiment is T2, PtpB from Mtb (Mycobacterium tuberculosis, UniProt P96830).
T2 construct: made in house
Nature of the experiment: biochemical. In kind it is biochemical.

The next experiment addresses T3, human PTP1B (Homo sapiens, UniProt P18031).
T3 construct: made in house
T3 sequence (P18031 1-435): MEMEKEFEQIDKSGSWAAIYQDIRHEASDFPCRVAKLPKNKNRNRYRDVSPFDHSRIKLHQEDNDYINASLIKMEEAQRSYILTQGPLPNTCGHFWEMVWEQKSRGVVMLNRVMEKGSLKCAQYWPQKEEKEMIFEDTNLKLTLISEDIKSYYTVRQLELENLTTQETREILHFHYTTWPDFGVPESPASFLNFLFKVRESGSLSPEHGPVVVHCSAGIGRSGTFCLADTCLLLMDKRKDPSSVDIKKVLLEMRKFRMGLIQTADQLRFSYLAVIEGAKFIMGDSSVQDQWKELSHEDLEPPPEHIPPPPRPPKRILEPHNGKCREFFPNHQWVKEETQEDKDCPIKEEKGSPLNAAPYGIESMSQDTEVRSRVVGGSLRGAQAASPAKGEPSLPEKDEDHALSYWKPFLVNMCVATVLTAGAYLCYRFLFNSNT
Description: biochemical. The settings on record: for IC50: pNPP substrate, mean ± SD, 3 experiments.

Experiment [2] addresses T1, PtpB. The settings on record: 300 µM inhibitor, PtpB 5 µM, 3 hours 37 °C.
For a further experiment, the target named is T4, trypsin (Sus scrofa, UniProt P00761).
T4 construct: purchased Promega
Nature of the experiment: Inhibition of trypsin by the inhibitor itself. In kind it is biochemical.

[3] abbreviates: pNPP substrate, 37 °C, imidazole pH 7.0, mean ± SD, 3 experiments.

T1 sequence (P96830 1-276): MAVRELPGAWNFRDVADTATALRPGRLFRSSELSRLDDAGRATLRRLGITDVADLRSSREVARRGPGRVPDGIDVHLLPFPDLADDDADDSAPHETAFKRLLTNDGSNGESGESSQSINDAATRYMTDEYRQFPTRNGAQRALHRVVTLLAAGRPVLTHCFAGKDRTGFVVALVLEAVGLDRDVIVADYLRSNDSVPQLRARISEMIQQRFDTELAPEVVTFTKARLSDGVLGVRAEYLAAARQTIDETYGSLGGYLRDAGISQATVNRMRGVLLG
T2 sequence (P96830 1-276): as above
T4 sequence (P00761 9-231): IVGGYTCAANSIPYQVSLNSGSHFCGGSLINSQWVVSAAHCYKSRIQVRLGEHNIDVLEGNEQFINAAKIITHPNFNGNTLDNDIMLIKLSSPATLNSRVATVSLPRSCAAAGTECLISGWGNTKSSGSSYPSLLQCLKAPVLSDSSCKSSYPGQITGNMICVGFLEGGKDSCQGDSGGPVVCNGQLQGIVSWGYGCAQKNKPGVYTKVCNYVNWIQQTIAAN

In the case of `CC(C)=CCc1c(C)c(CC=C(C)C)c2c(c1O)C(=O)c1c(O)cc(O)c(CC=C(C)C)c1C2` [PirIII, 1,3,8-trihydroxy-6-methyl-4,5,7-triprenylanthrone], on PtpB [1], the “IC50 / Ki” value came out at 0.8, the Ki amounted to 6.6 ± 2.7 µM and the Type of inhibition result was “Non-competitive”. This compound also registered an IC50 against PtpB from Mtb (setting [3]) of 5.4 ± 0.6 µM. The same compound came in with an IC50 against human PTP1B of 11.8 ± 3.5 µM.
`COc1ccc([C@@H]2CC(=O)c3c(O)cc(O[C@@H]4O[C@H](CO[C@@H]5O[C@@H](C)[C@H](O)[C@@H](O)[C@H]5O)[C@@H](O)[C@H](O)[C@H]4O)cc3O2)cc1O` [Hesp, hesperidin] displayed an IC50 against PtpB from Mtb (setting [3]) above 100 µM. At PtpB from Mtb (up to 100 µM), the “PtpB enzymatic inhibition (in words)” value is “not active”.
On the same counts, the results for `O=C(O)/C=C/c1ccc(OC2O[C@H](CO)[C@@H](O)[C@H](O)[C@H]2O)c(O)c1` (some centres unmarked) [Caf, 4-O-glucosyl caffeic acid] are above 100 µM and “not active”.
On the same counts, the results for `O=C(/C=C/c1ccc(O)c(O)c1)O[C@@H]1C[C@@](OC(=O)/C=C/c2ccc(O)c(O)c2)(C(=O)O)C[C@@H](O)[C@@H]1O` [Cyn, cynarin] are above 100 µM and “not active”.
On the same counts, the results for `C[N+](C)(C)CCc1c[nH]c2ccc(O)cc12.[I-]` [Buf-I, bufotenine CH3I] are above 100 µM and “not active”.
The compound `COc1c(C2COc3cc(O)c(CC=C(C)C)c(O)c3C2=O)ccc(O)c1CC=C(C)C` (centres unmarked) [M2, isosophoranone] had an IC50 at PtpB from Mtb (setting [3]) of 19.8 ± 2.3 µM.
Consider `CC(C)=CCC/C(C)=C/Cc1cc(CCC(=O)c2c(O)cc(O)c(CC=C(C)C)c2O)ccc1O` [Ega1, 4,2’,4’,6’-tetrahydroxy-3’-prenyl-3-geranyldihydrochalcone], for which, on PtpB [1], the “IC50 / Ki” value turned out to be 0.9, the Ki turned out to be 14.5 ± 2.3 µM and the Type of inhibition entry is given as “Non-competitive”. Half-maximal inhibition against PtpB from Mtb (setting [3]) (IC50) required 13.4 ± 2.6 µM. Further, on human PTP1B, the “SI (Selectivity index)” value turned out to be 1.6 and half-maximal inhibition (IC50) was put at 20.9 ± 2.8 µM.
In the case of `COc1c(C)c(OC(C)=O)c2c(c1-c1c(OC)c(C)c(OC(C)=O)c3c1C(=O)c1cc(C)cc(OC(C)=O)c1C3=O)C(=O)c1cc(C)cc(OC(C)=O)c1C2=O` [Ac3, tetra-acetyl-trachypone], at PtpB [1], the “IC50 / Ki” value was 1.9, the Ki was determined as 17.1 ± 4.5 µM and the Type of inhibition result is recorded as “Competitive”. This compound also gave an IC50 against PtpB from Mtb (setting [3]) of 33.2 ± 4.9 µM. On human PTP1B, the “SI (Selectivity index)” value is recorded as 0.9 and it took 31.2 ± 2.7 µM to reach half-maximal inhibition (IC50).
`COc1c(C2COc3cc(O)c(CCC(C)C)c(O)c3C2=O)ccc(O)c1CCC(C)C` (centres unmarked) [M2H, tetra-hydro-isosophoranone] returned an IC50 at PtpB from Mtb (setting [3]) of 69.4 ± 4.5 µM.
Same read-out and setting: the figure for `COc1ccc(CCC(=O)c2c(O)cc(OC)c(CC=C(C)C)c2OC)cc1CC=C(C)CCC=C(C)C` [59-triMe, 4,2’,4’-trimethoxy-6’-hydroxy,3’-prenyl-3-geranyldihydrochalcone] is above 100 µM.
Turning to `COc1c(C)c(O)c2c(c1-c1c(OC)c(C)c(O)c3c1C(=O)c1cc(C)cc(O)c1C3=O)C(=O)c1cc(C)cc(O)c1C2=O` [compound 6016, trachypone], at PtpB [1], the “IC50 / Ki” value is recorded as 1.7, the affinity corresponds to a Ki of 11.5 ± 1.7 µM and the Type of inhibition entry was “Competitive”. In addition, the midpoint of inhibition against PtpB from Mtb (setting [3]), the IC50, lay at 19.2 ± 6.7 µM. Also, on human PTP1B, the “SI (Selectivity index)” value was 0.4 and the IC50 came to 7.1 ± 1.4 µM.
As for `O[C@@H]1OC[C@H](Cc2ccc3c(c2)OCO3)[C@H]1Cc1ccc2c(c1)OCO2` [α-Cub, α-cubebin], at PtpB from Mtb, the “PtpB enzymatic inhibition (in words)” value is “not active”. Besides, the IC50 against PtpB from Mtb (pH 7) is above 100 µM.
For `CC(C)=CCc1c(C)c(CC=C(C)C)c2c(c1O)C(=O)c1c(O)cc(O)c(CC=C(CO)CO)c1C2` [∆3, 1,3,8-trihydroxy-6-methyl-5,7-diprenyl-4-γ,γ’dihydroxyprenyl-anthrone], at PtpB [1], the “IC50 / Ki” value was determined as 2.0, affinity was put at a Ki of 13.4 ± 1.5 µM and the Type of inhibition result is listed as “Non-competitive”. The compound also displayed an IC50 on PtpB from Mtb (setting [3]) of 26.7 ± 0.6 µM. In addition, at human PTP1B, the “SI (Selectivity index)” value was found to be 0.6 and the IC50 was determined as 14.7 ± 2.1 µM.
For the compound `CC(C)=CCc1c(O)ccc(C(=O)[C@H]2[C@@H](c3c(O)cc(/C=C/c4ccc(O)cc4O)cc3O)C=C(C)C[C@@H]2c2ccc(O)cc2O)c1O` [KuwE, Kuwanol E], at PtpB [1], the “IC50 / Ki” value is recorded as 1.2, the Ki was 1.6 ± 0.1 µM and the Type of inhibition entry was “Competitive”. On PtpB from Mtb (setting [3]), this compound yielded an IC50 of 1.9 ± 0.5 µM. In addition, the “Protection of PtpB catalytic site from proteolytic cleavage by trypsin (fragments m/z 1953 and m/z 2224)” value at PtpB [2] is “protecting it from the proteolytic cleavage by trypsin”. At trypsin, the Inhibition of trypsin entry is “not able to inhibit trypsin”. For the same compound, at human PTP1B, the “SI (Selectivity index)” value is 5.1 and inhibition was half-maximal at 9.6 ± 2.6 µM (IC50).
